# Target: recombinant human mGluR2 (Homo sapiens (Human), UniProt Q14416)
# Assay: FLIPR Ca2+ mobilization antagonist assay in CHO dhfr- cells expressing human mGluR2 and Gα16
# Type: cell-based
# Settings: antagonist response after addition of 2,500 nM glutamate, Fluo-4 AM, FLIPR384
# Description: Antagonist constants are determined as follows. The compounds of the invention were tested in a fluorescence laser imaging plate reader based assay. This assay is a common functional assay to monitor Ca2+ mobilization in whole cells expressing recombinant receptor coupled with a promiscuous G-protein. CHO dhfr-cells stably expressing recombinant human mGluR2 and Gα16 loaded with Fluo-4 AM (Invitrogen, Carlsbad Calif.) were treated with various concentrations of antagonists of compounds and the Ca2+ response was monitored on a FLIPR384 (Molecular Devices, Sunnydale Calif.) for agonist activity. Then 2,500 nM glutamate was added and the antagonist response was monitored. The maximum calcium response at each concentration of compound for agonist or antagonist were plotted as dose responses and the curves were fitted with a four parameter logistic equation giving IC50 and Hill coefficient using the iterative non linear curve fitting software ADA (Merck & Co). Data in the following table represent activities in the antagonist assay.
# Chain of recombinant human mGluR2 (Q14416 19-872): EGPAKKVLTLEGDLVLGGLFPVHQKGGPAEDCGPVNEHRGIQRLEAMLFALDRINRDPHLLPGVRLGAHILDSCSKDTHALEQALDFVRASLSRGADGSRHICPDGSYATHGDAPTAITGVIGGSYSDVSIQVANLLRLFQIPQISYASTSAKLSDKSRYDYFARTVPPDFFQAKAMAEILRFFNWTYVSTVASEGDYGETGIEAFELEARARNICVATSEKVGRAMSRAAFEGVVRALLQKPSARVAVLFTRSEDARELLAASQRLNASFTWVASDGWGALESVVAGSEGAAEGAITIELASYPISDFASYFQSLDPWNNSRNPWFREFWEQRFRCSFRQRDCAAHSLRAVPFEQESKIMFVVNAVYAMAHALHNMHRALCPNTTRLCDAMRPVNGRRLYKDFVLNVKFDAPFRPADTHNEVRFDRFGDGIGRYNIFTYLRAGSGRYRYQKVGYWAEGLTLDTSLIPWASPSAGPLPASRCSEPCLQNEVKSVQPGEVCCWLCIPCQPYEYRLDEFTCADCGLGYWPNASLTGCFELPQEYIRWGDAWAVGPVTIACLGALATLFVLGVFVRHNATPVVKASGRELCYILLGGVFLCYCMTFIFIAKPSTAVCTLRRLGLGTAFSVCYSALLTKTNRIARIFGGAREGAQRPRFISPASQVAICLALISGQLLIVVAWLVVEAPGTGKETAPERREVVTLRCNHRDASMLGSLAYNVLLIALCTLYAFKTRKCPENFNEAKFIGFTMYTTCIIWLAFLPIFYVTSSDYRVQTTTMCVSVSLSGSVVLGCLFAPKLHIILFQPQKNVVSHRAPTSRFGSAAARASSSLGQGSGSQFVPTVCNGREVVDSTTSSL
row,IC50 [nM],SMILES
1,7.6,"Cc1nonc1CN1CCc2c(-c3ccc(F)cc3F)cc(C(N)=O)nc2C1 [Example 2-7, 4-(2,4-difluorophenyl)-7-[(4-methyl-1,2,5-oxadiazol-3-yl)methyl]-5,6,7,8-tetrahydro-1,7-naphthyridine-2-carboxamide]"
2,40.9,"COc1cc(F)ccc1-c1cc(C(N)=O)nc2c1CCN(Cc1ccnc(C3CC3)c1)C2 [Example 2-10, 7-[(2-cyclopropylpyridin-4-yl)methyl]-4-(4-fluoro-2-methoxyphenyl)-5,6,7,8-tetrahydro-1,7-naphthyridine-2-carboxamide]"
3,10.4,"NC(=O)c1cc(-c2ccc(F)cc2Cl)c2c(n1)CN(Cc1ccnc(OC(F)F)c1)CC2 [Example 2-11, 4-(2-chloro-4-fluorophenyl)-7-{[2-(difluoromethoxy)pyridin-4-yl]methyl}-5,6,7,8-tetrahydro-1,7-naphthyridine-2-carboxamide]"
4,47.8,"CS(=O)(=O)c1cccc(CN2CCc3c(-c4ccccc4F)cc(C(N)=O)nc3C2)c1 [Example 2-13, 4-(2-fluorophenyl)-7-[3-(methylsulfonyl)benzyl]-5,6,7,8-tetrahydro-1,7-naphthyridine-2-carboxamide]"
5,101,"NC(=O)c1cc(-c2ccc(F)cc2F)c2c(n1)CN(CC(=O)N1CCOCC1)CC2 [Example 2-17, 4-(2,4-difluorophenyl)-7-(2-morpholin-4-yl-2-oxoethyl)-5,6,7,8-tetrahydro-1,7-naphthyridine-2-carboxamide]"
6,49.5,"Cn1nnnc1CN1CCc2c(-c3ccc(F)cc3F)cc(C(N)=O)nc2C1 [Example 2-18, 4-(2,4-difluorophenyl)-7-[(1-methyl-1H-tetrazol-5-yl)methyl]-5,6,7,8-tetrahydro-1,7-naphthyridine-2-carboxamide]"
7,11,"NC(=O)c1cc(-c2c(F)cc(Cl)cc2F)c2c(n1)CN(Cc1ccnn1C(F)F)CC2 [Example 2-20, 4-(4-chloro-2,6-difluorophenyl)-7-{[1-(difluoromethyl)-1H-pyrazol-5-yl]methyl}-5,6,7,8-tetrahydro-1,7-naphthyridine-2-carboxamide]"
8,33.7,"Cn1nncc1CN1CCc2c(-c3c(F)cc(F)cc3F)cc(C(N)=O)nc2C1 [Example 2-21, 7-[(1-methyl-1H-1,2,3-triazol-5-yl)methyl]-4-(2,4,6-trifluorophenyl)-5,6,7,8-tetrahydro-1,7-naphthyridine-2-carboxamide]"
9,5.7,"NC(=O)c1cc(-c2ccc(F)cc2F)c2c(n1)CN(Cc1cc(C(F)(F)F)ncn1)CC2 [Example 2-23, 4-(2,4-difluorophenyl)-7-{[6-(trifluoromethyl)pyrimidin-4-yl]methyl}-5,6,7,8-tetrahydro-1,7-naphthyridine-2-carboxamide]"
10,13.1,"Cc1conc1CN1CCc2c(-c3ccc(F)cc3F)cc(C(N)=O)nc2C1 [Example 2-26, 4-(2,4-difluorophenyl)-7-[(4-methylisoxazol-3-yl)methyl]-5,6,7,8-tetrahydro-1,7-naphthyridine-2-carboxamide]"

# More lines, now with the values behind:
row,SMILES,IC50 [nM]
1,"NC(=O)c1cccc(CN2CCc3c(-c4ccc(F)cc4)cc(C(N)=O)nc3C2)c1 [Example 2-1, 7-(3-carbamoylbenzyl)-4-(4-fluorophenyl)-5,6,7,8-tetrahydro-1,7-naphthyridine-2-carboxamide]",52.7
2,"NC(=O)c1cc(-c2ccc(F)cc2)c2c(n1)CN(Cc1ccccc1C(N)=O)CC2 [Example 2-2, 7-(2-carbamoylbenzyl)-4-(4-fluorophenyl)-5,6,7,8-tetrahydro-1,7-naphthyridine-2-carboxamide]",28.2
3,"NC(=O)c1ccc(CN2CCc3c(-c4ccc(F)cc4)cc(C(N)=O)nc3C2)cc1 [Example 2-3, 7-(4-carbamoylbenzyl)-4-(4-fluorophenyl)-5,6,7,8-tetrahydro-1,7-naphthyridine-2-carboxamide]",117
4,"NC(=O)c1cc(-c2ccc(F)c(F)c2)c2c(n1)CN(Cc1ccnc(C(F)(F)F)c1)CC2 [Example 2-4, 4-(3,4-difluorophenyl)-7-{[2-(trifluoromethyl)pyridin-4-yl]methyl}-5,6,7,8-tetrahydro-1,7-naphthyridine-2-carboxamide]",20.4
5,"NC(=O)c1cc(-c2cnn(C(F)F)c2)c2c(n1)CN(Cc1ccnc(C(F)(F)F)c1)CC2 [Example 2-5, 4-[1-(difluoromethyl)-1H-pyrazol-4-yl]-7-{[2-(trifluoromethyl)pyridin-4-yl]methyl}-5,6,7,8-tetrahydro-1,7-naphthyridine-2-carboxamide]",30.3
6,"CS(=O)(=O)c1cccc(CN2CCc3c(-c4ccc(F)cc4)cc(C(N)=O)nc3C2)c1 [Example 2-6, 4-(4-fluorophenyl)-7-[3-(methylsulfonyl)benzyl]-5,6,7,8-tetrahydro-1,7-naphthyridine-2-carboxamide]",23
7,"NC(=O)c1cc(-c2cccc(C(F)(F)F)c2)c2c(n1)CN(Cc1ccnc(C(F)(F)F)c1)CC2 [Example 2-8, 4-[3-(trifluoromethyl)phenyl]-7-{[2-(trifluoromethyl)pyridin-4-yl]methyl}-5,6,7,8-tetrahydro-1,7-naphthyridine-2-carboxamide]",188
8,"NC(=O)c1cc(-c2cnn(C(F)F)c2)c2c(n1)CN(Cc1ccnc(C3CC3)c1)CC2 [Example 2-9, 7-[(2-cyclopropylpyridin-4-yl)methyl]-4-[1-(difluoromethyl)-1H-pyrazol-4-yl]-5,6,7,8-tetrahydro-1,7-naphthyridine-2-carboxamide]",10.8
9,"NC(=O)c1cc(-c2cnn(C(F)F)c2)c2c(n1)CN(Cc1ccnc(OC(F)F)c1)CC2 [Example 2-12, 7-{[2-(difluoromethoxy)pyridin-4-yl]methyl}-4-[1-(difluoromethyl)-1H-pyrazol-4-yl]-5,6,7,8-tetrahydro-1,7-naphthyridine-2-carboxamide]",8.5
10,"Cc1cc(-c2cc(C(N)=O)nc3c2CCN(Cc2ccnc(C(F)(F)F)c2)C3)ccn1 [Example 2-14, 4-(2-methylpyridin-4-yl)-7-{[2-(trifluoromethyl)pyridin-4-yl]methyl}-5,6,7,8-tetrahydro-1,7-naphthyridine-2-carboxamide]",153
11,"NC(=O)c1cc(-c2cnc(C(F)F)s2)c2c(n1)CN(Cc1ccnc(OC(F)F)c1)CC2 [Example 2-15, 7-{[2-(difluoromethoxy)pyridin-4-yl]methyl}-4-[2-(difluoromethyl)-1,3-thiazol-5-yl]-5,6,7,8-tetrahydro-1,7-naphthyridine-2-carboxamide]",45.2
12,"Cc1cc(-c2cc(C(N)=O)nc3c2CCN(Cc2ccnc(OC(F)F)c2)C3)sn1 [Example 2-16, 7-{[2-(difluoromethoxy)pyridin-4-yl]methyl}-4-(3-methylisothiazol-5-yl)-5,6,7,8-tetrahydro-1,7-naphthyridine-2-carboxamide]",26.7
13,"NC(=O)c1cc(-n2ccc(C(F)(F)F)n2)c2c(n1)CN(Cc1ccnc(C(F)(F)F)c1)CC2 [Example 2-19, 4-[3-(trifluoromethyl)-1H-pyrazol-1-yl]-7-{[2-(trifluoromethyl)pyridin-4-yl]methyl}-5,6,7,8-tetrahydro-1,7-naphthyridine-2-carboxamide]",61.6
14,"NC(=O)c1cc(-c2ccc(Cl)cn2)c2c(n1)CN(Cc1ccnn1C(F)F)CC2 [Example 2-22, 4-(5-chloropyridin-2-yl)-7-{[1-(difluoromethyl)-1H-pyrazol-5-yl]methyl}-5,6,7,8-tetrahydro-1,7-naphthyridine-2-carboxamide]",19.4
15,"NC(=O)c1cc(-c2cc(C3CC3)ns2)c2c(n1)CN(Cc1ccnc(C3CC3)c1)CC2 [Example 2-24, 4-(3-cyclopropylisothiazol-5-yl)-7-[(2-cyclopropylpyridin-4-yl)methyl]-5,6,7,8-tetrahydro-1,7-naphthyridine-2-carboxamide]",18.2
16,"N#Cc1cnn(-c2cc(C(N)=O)nc3c2CCN(Cc2ccnc(C(F)(F)F)c2)C3)c1 [Example 2-25, 4-(4-cyano-1H-pyrazol-1-yl)-7-{[2-(trifluoromethyl)pyridin-4-yl]methyl}-5,6,7,8-tetrahydro-1,7-naphthyridine-2-carboxamide]",40.9
17,"NC(=O)c1cc(-c2cc(C3CC3)ns2)c2c(n1)CN(Cc1ccnc(OC(F)F)c1)CC2 [Example 2-27, 4-(3-cyclopropylisothiazol-5-yl)-7-{[2-(difluoromethoxy)pyridin-4-yl]methyl}-5,6,7,8-tetrahydro-1,7-naphthyridine-2-carboxamide]",23
18,"CC1(C)CCC(c2cc(C(N)=O)nc3c2CCN(Cc2ccnc(C(F)(F)F)c2)C3)CC1 [Example 4-1, 4-(4,4-dimethylcyclohexyl)-7-((2-(trifluoromethyl)pyridin-4-yl)methyl)-5,6,7,8-tetrahydro-1,7-naphthyridine-2-carboxamide]",117
19,"NC(=O)c1cc(C2=CCC3(CC2)CC3)c2c(n1)CN(Cc1ccnc(C(F)(F)F)c1)CC2 [Example 4-2, 4-spiro[2.5]oct-5-en-6-yl-7-{[2-(trifluoromethyl)pyridin-4-yl]methyl}-5,6,7,8-tetrahydro-1,7-naphthyridine-2-carboxamide]",49.7
20,"Cc1cn(-c2cc(C(N)=O)nc3c2CCN(Cc2ccnc(C(F)(F)F)c2)C3)cn1 [Example 5-1, 4-(4-methyl-1H-imidazol-1-yl)-7-((2-(trifluoromethyl)pyridin-4-yl)methyl)-5,6,7,8-tetrahydro-1,7-naphthyridine-2-carboxamide]",115
21,"C[C@@H]1CN(c2cc(C(N)=O)nc3c2CCN(Cc2ccnc(C(F)(F)F)c2)C3)CCO1 [Example 5-2, (R)-4-(2-methylmorpholino)-7-((2-(trifluoromethyl)pyridin-4-yl)methyl)-5,6,7,8-tetrahydro-1,7-naphthyridine-2-carboxamide]",79.1
